# From patent publication US9957264B2 (Merck Sharp & Dohme Corp., priority 2013, dated 2018)
# Experiments:
# [1] = target: JAK1 (recombinant purified GST-tagged catalytic domain) (Homo sapiens (Human), UniProt P23458); test: Jak Biochemical HTRF Assay (JAK1); settings: [ATP] 31.8 μM
# Method in brief: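 Read-out is the 665/615 nm time-resolved FRET ratio from Eu-pY20 antibody and streptavidin-Dylight 650 bound to phosphorylated biotin-peptide. Reactions ran 120 min at room temperature after ATP start. Inhibition normalized to untreated controls gave IC50 via 4-parameter fit.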
# [2] = target: JAK2 (recombinant purified GST-tagged catalytic domain) (Homo sapiens (Human), UniProt O60674); test: Jak Biochemical HTRF Assay (JAK2); settings: [ATP] 8.5 μM
# Sequence of JAK2 (recombinant purified GST-tagged catalytic domain) (O60674 849-1124): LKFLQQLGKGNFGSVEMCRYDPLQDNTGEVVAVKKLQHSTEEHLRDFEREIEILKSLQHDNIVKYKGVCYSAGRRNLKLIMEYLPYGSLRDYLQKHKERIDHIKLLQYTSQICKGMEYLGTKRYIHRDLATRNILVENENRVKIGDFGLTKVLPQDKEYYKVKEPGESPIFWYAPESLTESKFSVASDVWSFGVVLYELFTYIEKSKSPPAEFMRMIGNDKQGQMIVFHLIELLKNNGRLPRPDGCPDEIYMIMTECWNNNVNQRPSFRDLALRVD
# Sequence of JAK1 (recombinant purified GST-tagged catalytic domain) (P23458 875-1153): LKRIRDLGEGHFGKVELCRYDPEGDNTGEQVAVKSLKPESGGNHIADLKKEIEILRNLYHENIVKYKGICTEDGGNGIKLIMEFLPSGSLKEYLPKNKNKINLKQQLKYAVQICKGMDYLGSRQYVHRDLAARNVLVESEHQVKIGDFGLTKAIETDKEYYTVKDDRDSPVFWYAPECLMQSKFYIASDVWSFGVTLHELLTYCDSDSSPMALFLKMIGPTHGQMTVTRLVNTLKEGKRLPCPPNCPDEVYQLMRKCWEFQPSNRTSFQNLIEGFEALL
Structure (SMILES),IC50 [1] [nM],IC50 [2] [nM]
"CC(C)(C)OC(=O)N1CCC(CC#N)(n2nc(Nc3ccc([C@@]4(C(F)(F)F)CCCN4)cc3)c3c(=O)[nH]ccc32)CC1 (single isomer, unassigned) [Example 21-18, (R or S)-tert-butyl 4-(cyanomethyl)-4-(4-oxo-3-(4-(2-(trifluoromethyl)pyrrolidin-2-yl)phenylamino)-4,5-dihydropyrazolo[4,3-c]pyridin-1-yl)piperidine-1-carboxylate]",0.55,0.5
"CC(C)(C)OC(=O)N1CCC(CC#N)(n2nc(Nc3ccc([C@]4(C(F)(F)F)CCCN4)cc3)c3c(=O)[nH]ccc32)CC1 (single isomer, unassigned) [Example 21-19, (S or R)-tert-butyl 4-(cyanomethyl)-4-(4-oxo-3-(4-(2-(trifluoromethyl)pyrrolidin-2-yl)phenylamino)-4,5-dihydropyrazolo[4,3-c]pyridin-1-yl)piperidine-1-carboxylate]",0.45,0.5
"Cc1cc(Nc2nn(C3(CC#N)CCN(c4ccc(C#N)cn4)CC3F)c3cc[nH]c(=O)c23)ccc1C(=O)N1CCSCC1 (stereo in doubt) [Example 15-6, 6-((3R,4R)-4-(cyanomethyl)-3-fluoro-4-(3-((3-methyl-4-(thiomorpholine-4-carbonyl)phenyl)amino)-4-oxo-4,5-dihydro-1H-pyrazolo[4,3-c]pyridin-1-yl)piperidin-1-yl)nicotinonitrile]",0.1,0.09
"Cc1nc2ccc(Nc3nn(C4(CC#N)CCCOC4)c4cc[nH]c(=O)c34)cc2s1 (stereo in doubt) [Example 21-5, [(3S)-3-{3-[(2-methyl-1,3-benzothiazol-6-yl)amino]-4-oxo-4,5-dihydro-1H-pyrazolo[4,3-c]pyridin-1-yl}tetrahydro-2H-pyran-3-yl]acetonitrile]",0.09,1.32
"CC(C)(C)OC(=O)N1CC(CC#N)(n2nc(Nc3ccccc3)c3c(=O)[nH]ccc32)C1 [Example 1-1, tert-butyl 3-(cyanomethyl)-3-(4-oxo-3-(phenylamino)-4,5-dihydro-1H-pyrazolo[4,3-c]pyridin-1-yl)azetidine-1-carboxylate]",2.23,25
"CC(C)(C)OC(=O)N1CCC(CC#N)(n2nc(Nc3ccccc3)c3c(=O)[nH]ccc32)CC1 [Example 1-2, tert-butyl 4-(cyanomethyl)-4-(4-oxo-3-(phenylamino)-4,5-dihydro-1H-pyrazolo[4,3-c]pyridin-1-yl)piperidine-1-carboxylate]",0.45,11.9
"CCNc1nn(C2(CC#N)CCN(C(=O)OC(C)(C)C)CC2)c2cc[nH]c(=O)c12 [Example 2-1, tert-butyl 4-(cyanomethyl)-4-[3-(ethylamino)-4-oxo-4,5-dihydro-1H-pyrazolo[4,3-c]pyridin-1-yl]piperidine-1-carboxylate]",48.2,60.3
"CC(C)(C)OC(=O)N1CCC(CC#N)(n2nc(NCC3CC3)c3c(=O)[nH]ccc32)CC1 [Example 2-2, tert-butyl 4-(cyanomethyl)-4-{3-[(cyclopropylmethyl)amino]-4-oxo-4,5-dihydro-1H-pyrazolo[4,3-c]pyridin-1-yl}piperidine-1-carboxylate]",49.9,39.8
"CC(C)(C)OC(=O)N1CCC(CC#N)(n2nc(NC3CCC3)c3c(=O)[nH]ccc32)CC1 [Example 2-3, tert-butyl 4-(cyanomethyl)-4-[3-(cyclobutylamino)-4-oxo-4,5-dihydro-1H-pyrazolo[4,3-c]pyridin-1-yl]piperidine-1-carboxylate]",67.6,> 1500
"CCNc1nn(C2(CC#N)CN(C(=O)OC(C)(C)C)C2)c2cc[nH]c(=O)c12 [Example 2-4, tert-butyl 3-(cyanomethyl)-3-[3-(ethylamino)-4-oxo-4,5-dihydro-1H-pyrazolo [4,3-c]pyridin-1-yl] azetidine-1-carboxylate]",208,> 1480
"CNc1nn(C2(CC#N)CCN(C(=O)OC(C)(C)C)CC2)c2cc[nH]c(=O)c12 [Example 2-5, tert-butyl 4-(cyanomethyl)-4-[3-(methylamino)-4-oxo-4,5-dihydro-1H-pyrazolo [4,3-c]pyridin-1-yl] piperidine-1-carboxylate]",20.3,490
"CC(C)(C)OC(=O)N1CC(CC#N)(n2nc(NC3CC3)c3c(=O)[nH]ccc32)C1 [Example 3, tert-butyl 3-(cyanomethyl)-3-[3-(cyclopropylamino)-4-oxo-4,5-dihydro-1H-pyrazolo[4,3-c]pyridin-1-yl]azetidine-1-carboxylate]",40.8,2.51
"CC(C)(C)OC(=O)N1CC(CC#N)(n2nc(Nc3ccnc(C(F)(F)F)c3)c3c(=O)[nH]ccc32)C1 [Example 4-1, tert-butyl 3-(cyanomethyl)-3-(4-oxo-3-((2-(trifluoromethyl)pyridin-4-yl)amino)-4,5-dihydro-1H-pyrazolo[43-c]pyridin-1-yl)azetidine-1-carboxylate]",32.9,218
"CC(C)(C)OC(=O)N1CC(CC#N)(n2nc(Nc3ccc(F)cc3)c3c(=O)[nH]ccc32)C1 [Example 4-3, tert-butyl 3-(cyanomethyl)-3-(3-((4-fluorophenyl)amino)-4-oxo-4,5-dihydro-1H-pyrazolo[4,3-c]pyridin-1-yl)azetidine-1-carboxylate]",2.64,36
"CN(C)S(=O)(=O)c1ccc(Nc2nn(C3(CC#N)CCN(C(=O)OC(C)(C)C)CC3)c3cc[nH]c(=O)c23)cc1 [Example 5-1, tert-butyl 4-(cyanomethyl)-4-(3-((4-(N,N-dimethylsulfamoyl)phenyl)amino)-4-oxo-4,5-dihydro-1H-pyrazolo[4,3-c]pyridin-1-yl)piperidine-1-carboxylate]",0.22,0.28
"CC(C)(C)OC(=O)N1CCC(CC#N)(n2nc(Nc3ccc(S(N)(=O)=O)cc3)c3c(=O)[nH]ccc32)CC1 [Example 5-4, tert-butyl 4-(cyanomethyl)-4-{4-oxo-3-[(4-sulfamoylphenyl)amino]-4,5-dihydro-1H-pyrazolo[4,3-c]pyridin-1-yl}piperidine-1-carboxylate]",0.12,0.23
"CC(C)(C)OC(=O)N1CCC(CC#N)(n2nc(Nc3ccc4c(c3)CN(CC(F)(F)F)C4=O)c3c(=O)[nH]ccc32)CC1 [Example 5-5, tert-butyl 4-(cyanomethyl)-4-(4-oxo-3-{[1-oxo-2-(2,2,2-trifluoroethyl)-2,3-dihydro-1H-isoindol-5-yl]amino}-4,5-dihydro-1H-pyrazolo[4,3-c]pyridin-1-yl)piperidine-1-carboxylate]",0.28,0.31
"CC(C)(C)OC(=O)N1CCC(CC#N)(n2nc(Nc3ccc(C(F)(F)F)cc3)c3c(=O)[nH]ccc32)CC1 [Example 5-8, tert-butyl 4-(cyanomethyl)-4-(4-oxo-3-{[4-(trifluoromethyl)phenyl]amino}-4,5-dihydro-1H-pyrazolo [4,3-c]pyridin-1-yl) piperidine-1-carboxylate]",1.96,20
"CC(C)(C)OC(=O)N1CCC(CC#N)(n2nc(Nc3ccc4c(c3)CCC4=O)c3c(=O)[nH]ccc32)CC1 [Example 5-12, tert-butyl 4-(cyanomethyl)-4-(4-oxo-3-((1-oxo-2,3-dihydro-1H-inden-5-yl)amino)-4,5-dihydro-1H-pyrazolo[4,3-c]pyridin-1-yl)piperidine-1-carboxylate]",0.12,0.61
